{
  "source": "patent US10238648B2",
  "about": "(priority 2014, dated 2019)",
  "key": {"[1]": {"conditions": "cited from earlier work"}, "[2]": {"conditions": "oral dose x bioavailability", "from_the_text": "[formula] [formula] [formula] Dual Penetration Enhancer Formulations"}, "[3]": {"assay": "Permeation of abuse-deterrent (naloxone) formulations through separating membrane and placebo opioid layer, 72 h diffusion study", "assay_type": "in vitro ADME", "conditions": "from abuse deterrent layer NLX-2014-01-011", "protocol": "The ability of abuse-deterrent layer formulations to migrate into the oxymorphone layer was investigated. A placebo oxymorphone layer was prepared and two abuse-deterrent formulations (NLX-2014-01-011 and NLX-2014-01-012) were tested with different separating layers. The appearance of both formulations was uniform and aesthetically pleasing. When assembled, no distinguishable layers could be observed and the layers themselves were inseparable. Patches of size 0.95 cm^2 patches were punched out from the release liner side of the assembled roll.\nInsofar as NLX-2014-01-011 is concerned, while two cells did show permeation from the abuse deterrent layer, this was probably due to the abuse deterrent layer contacting the skin, as by the end of the experiment almost no permeation was observed."}, "sedation in dogs": {"system": "sedation in dogs", "conditions": "4.5 mg intravenous dose reversed by 1.2 mg intravenous naloxone; cited from earlier work"}},
  "note": "Structures can show the parent of a compound that is named as a salt. Where two headings read alike, the source gives them in different places.",
  "data": [
    {"smiles": "COc1ccc2c3c1O[C@H]1C(=O)CC[C@H]4[C@@H](C2)N(C)CC[C@]314", "note": "[Hydrocodone]", "values": [
      {"measurement": "Bioavailability", "setting": "[1]; po", "value": 80, "unit": "%"}
    ]},
    {"smiles": "COc1ccc2c3c1O[C@H]1C(=O)CC[C@@]4(O)[C@@H](C2)N(C)CC[C@]314", "note": "[Oxycodone]", "values": [
      {"measurement": "Bioavailability", "setting": "[1]; oral", "value": 87, "unit": "%"}
    ]},
    {"smiles": "CN1CC[C@]23c4c5ccc(O)c4O[C@H]2C(=O)CC[C@@]3(O)[C@H]1C5", "note": "[Oxymorphone]", "values": [
      {"measurement": "Dose after first pass effect", "setting": "[2]", "value": 4.0, "unit": "mg/day"}
    ]},
    {"smiles": "C=CCN1CC[C@]23c4c5ccc(O)c4O[C@H]2C(=O)CC[C@@]3(O)[C@H]1C5", "note": "[naloxone hydrochloride]", "values": [
      {"measurement": "permeability of the antagonist in the system", "setting": "[3]", "value": "largely impermeable"}
    ]},
    {"smiles": "C=CCN1CC[C@]23c4c5ccc(O)c4O[C@H]2C(=O)CC[C@@]3(O)[C@H]1C5", "note": "[naloxone]", "values": [
      {"measurement": "reversal of oxymorphone sedation", "setting": "sedation in dogs", "value": "reversed"}
    ]}
  ]
}
